# Biological target: T1, FPRL-1 (Homo sapiens, UniProt P25090)
# T1 construct: expressed in transfected cells
# T1 sequence (P25090 1-351): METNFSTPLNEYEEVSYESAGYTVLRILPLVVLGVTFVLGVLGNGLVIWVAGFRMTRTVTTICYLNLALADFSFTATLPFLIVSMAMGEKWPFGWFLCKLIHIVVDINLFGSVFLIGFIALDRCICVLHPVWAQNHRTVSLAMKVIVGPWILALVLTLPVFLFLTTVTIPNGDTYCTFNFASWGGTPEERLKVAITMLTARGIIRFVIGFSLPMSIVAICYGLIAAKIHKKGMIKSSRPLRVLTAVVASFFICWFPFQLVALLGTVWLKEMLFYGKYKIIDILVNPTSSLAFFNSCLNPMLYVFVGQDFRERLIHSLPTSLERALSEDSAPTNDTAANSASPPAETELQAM
# Experiment: FLIPR Tetra calcium activity assay in CHO-Ga16 cells stably expressing FPRL1
# Type: cell-based
# Details: compound-induced calcium activity; for EC50: 0.61 to 10,000 nM; for FPRL-1 Ga16-CHO (eff) efficacy: efficacy value in parentheses
# Description: CHO-Ga16 cells stably expressing FPRL1 were cultured in (F12, 10% FBS, 1% PSA, 400 μg/ml geneticin and 50 μg/ml hygromycin) and HEK-Gqi5 cells stable expressing FPR1 were cultured in (DMEM high glucose, 10% FBS, 1% PSA, 400 μg/ml geneticin and 50 μg/ml hygromycin). In general, the day before the experiment, 18,000 cells/well were plated in a 384-well clear bottom poly-d-lysine coated plate. The following day the screening compound-induced calcium activity was assayed on the FLIPR^Tetra. The drug plates were prepared in 384-well microplates using the EP3 and the MultiPROBE robotic liquid handling systems. Compounds were tested at concentrations ranging from 0.61 to 10,000 nM. Results are expressed as EC50 (nM) and efficacy values.
EC50,FPRL-1 Ga16-CHO (eff) efficacy,Compound
59 nM,0.71,COc1cc2c(cc1OC)CN(C(=O)C(CCCCNC(=O)NC1CCCCC1)NC(=O)Nc1ccc(SC)cc1)CC2 (centres unmarked) [Compound 4]
143 nM,0.61,COc1cc2c(cc1OC)CN(C(=O)C(CCCCNC(=O)c1ccco1)NC(=O)Nc1ccc(C)cc1)CC2 (centres unmarked) [Compound 1]
91 nM,0.79,COc1cc2c(cc1OC)CN(C(=O)C(CCCCNC(=O)Nc1ccccc1)NC(=O)Nc1ccc(Br)cc1)CC2 (centres unmarked) [Compound 2]
32 nM,0.76,COc1cc2c(cc1OC)CN(C(=O)C(CCCCNC(=O)Nc1ccccc1)NC(=O)Nc1ccc(SC)cc1)CC2 (centres unmarked) [Compound 3]

# From patent US8507560B2, “Pharmaceutical compositions comprising 3,4-dihydroisoquinolin-2(1H)-yl-3-phenylurea derivatives having formyl peptide receptor like-1 (FPRL-1) agonist or antagonist activity” (Allergan, Inc., priority 2010, dated 2013)
